Assay results reported in patent US5268462A, “Oleandomycin oximes” (Pliva Farmaceutska, priority 1990, dated 1993).
Converted amounts (≈) assume the structure as drawn.

What was measured:
Type in all cases: cell-based
[1] = system: Strept. faecalis ATCC-8043; test: Antibacterial in vitro activity (MIC), standard strain; settings: Enterococcus faecalis, ATCC8043; Strept. faecalis ATCC-8043, standard strain; read-out: Minimal Inhibitory Concentration (MIC)
Text: (§1) The antibacterial in vitro activity was evidenced on a series of standard and clinically isolated strains. The results are expressed as Minimal Inhibitory Concentration (MIC; μg/mL) and represented hereinbelow in Tables 1 and 2.

[2] = system: Staph. aureus ATCC 6538-P; test: as above; settings: Staphylococcus aureus, ATCC6538, read-out: Minimal Inhibitory Concentration (MIC)
Text: as §1

[3] = system: Klebsiella pneum. NCTC-10499; test: as above; settings: NCTC10499; Klebsiella pneum. NCTC-10499, standard strain; read-out: Minimal Inhibitory Concentration (MIC)
Text: as §1

Sarcina lutea ATCC-9341 = test: as above; settings: Micrococcus luteus, ATCC9341; Sarcina lutea ATCC-9341, standard strain; read-out: Minimal Inhibitory Concentration (MIC)
Text: as §1

Pseud. aerug. NCTC-10490 = test: as above; settings: Pseud. aerug. NCTC-10490, standard strain; read-out: Minimal Inhibitory Concentration (MIC)
Text: as §1

E. coli ATCC 10536 = test: as above; settings: Escherichia coli, ATCC10536; E. coli ATCC 10536, standard strain; read-out: Minimal Inhibitory Concentration (MIC)
Text: as §1

Staph. aureus 10097 = test: Antibacterial in vitro activity (MIC), clinical isolate; settings: Staphylococcus aureus; Staph. aureus 10097, clinical isolate; read-out: Minimal Inhibitory Concentration (MIC)
Text: as §1

Staph. aureus 10099 = test: as above; settings: Staphylococcus aureus; Staph. aureus 10099, clinical isolate; read-out: Minimal Inhibitory Concentration (MIC)
Text: as §1

Staph. saprophyt. 3947 = test: as above; settings: Staph. saprophyt. 3947, clinical isolate; read-out: Minimal Inhibitory Concentration (MIC)
Text: as §1

H. Influenze 4028 = test: as above; settings: H. Influenze 4028, clinical isolate; read-out: Minimal Inhibitory Concentration (MIC)
Text: as §1

Strept. pneumoniae 4050 = test: as above; settings: Streptococcus pneumoniae; Strept. pneumoniae 4050, clinical isolate; read-out: Minimal Inhibitory Concentration (MIC)
Text: as §1

Strept. faecalis 10390 = test: as above; settings: Enterococcus faecalis; Strept. faecalis 10390, clinical isolate; read-out: Minimal Inhibitory Concentration (MIC)
Text: as §1

Sarcina lutea ATCC 9341 = test: Activity on Sarcina lutea ATCC 9341
Strept. pneumoniae = test: MIC (clinical isolates), Examples 1-3; settings: Streptococcus pneumoniae
Text: as §1

Strept. serol. group A = test: MIC (clinical isolates), Examples 1-3
Text: as §1

SMILES	MIC [1]	MIC [2]	MIC [3]	MIC (Sarcina lutea ATCC-9341)	MIC (Pseud. aerug. NCTC-10490)	MIC (E. coli ATCC 10536)	MIC (Staph. aureus 10097)	MIC (Staph. aureus 10099)	MIC (Staph. saprophyt. 3947)	MIC (H. Influenze 4028)	MIC (Strept. pneumoniae 4050)	MIC (Strept. faecalis 10390)	MIC (Strept. pneumoniae)	MIC (Strept. serol. group A)	Activity (Sarcina lutea ATCC 9341)
COC1CC(OC2C(C)C(=O)OC(C)C(C)C(O)C(C)C(=NO)C3(CO3)CC(C)C(OC3OC(C)CC(N(C)C)C3O)C2C)OC(C)C1O (stereo not drawn) [Ia, OLEANDOMYCIN OXIME]	–	–	–	–	–	–	–	–	–	–	–	–	0.5 µg/mL (≈ 0.711 µM)	0.5 µg/mL (≈ 0.711 µM)	–
COC1CC(OC2C(C)C(=O)OC(C)C(C)C=C(C)C(=NO)C3(CO3)CC(C)C(OC3OC(C)CC(N(C)C)C3O)C2C)OC(C)C1O (stereo not drawn) [Ib, ANHYDRO OLEANDOMYCIN OXIME]	–	–	–	–	–	–	–	–	–	–	–	–	2 µg/mL (≈ 2.92 µM)	1 µg/mL (≈ 1.46 µM)	–

Continued, in another order:

MIC [1]	MIC [2]	MIC [3]	MIC (Sarcina lutea ATCC-9341)	MIC (Pseud. aerug. NCTC-10490)	MIC (E. coli ATCC 10536)	MIC (Staph. aureus 10097)	MIC (Staph. aureus 10099)	MIC (Staph. saprophyt. 3947)	MIC (H. Influenze 4028)	MIC (Strept. pneumoniae 4050)	MIC (Strept. faecalis 10390)	MIC (Strept. pneumoniae)	MIC (Strept. serol. group A)	SMILES	Activity (Sarcina lutea ATCC 9341)
0.2 µg/mL (≈ 0.29 µM)	0.2 µg/mL (≈ 0.29 µM)	50 µg/mL (≈ 72.6 µM)	0.2 µg/mL (≈ 0.29 µM)	50 µg/mL (≈ 72.6 µM)	6.2 µg/mL (≈ 9 µM)	0.4 µg/mL (≈ 0.581 µM)	0.4 µg/mL (≈ 0.581 µM)	1.6 µg/mL (≈ 2.32 µM)	0.4 µg/mL (≈ 0.581 µM)	0.4 µg/mL (≈ 0.581 µM)	0.8 µg/mL (≈ 1.16 µM)	–	–	COC1CC(OC2C(C)C(=O)OC(C)C(C)C(O)C(C)C(=NO)C(C)CC(C)C(OC3OC(C)CC(N(C)C)C3O)C2C)OC(C)C1O (single isomer, unassigned) [Ie, 8-methyl-oleandomycin oxime]	657 u/mg
–	–	–	–	–	–	–	–	–	–	–	–	1 µg/mL (≈ 1.46 µM)	1 µg/mL (≈ 1.46 µM)	C=C1CC(C)C(OC2OC(C)CC(N(C)C)C2O)C(C)C(OC2CC(OC)C(O)C(C)O2)C(C)C(=O)OC(C)C(C)C(O)C(C)C1=NO (stereo not drawn) [Ic, 8-METHYLENE-OLEANDOMYCIN OXIME]	–
0.8 µg/mL	0.4 µg/mL	> 50 µg/mL	0.2 µg/mL	> 50 µg/mL	25 µg/mL	0.8 µg/mL	0.8 µg/mL	1.6 µg/mL	–	1.6 µg/mL	3.1 µg/mL	–	–	CO[C@H]1C[C@H](O[C@H]2[C@H](C)[C@@H](O[C@@H]3O[C@H](C)C[C@H](N(C)C)[C@H]3O)[C@@H](C)C[C@@]3(CO3)C(=O)[C@H](C)[C@@H](O)[C@@H](C)[C@@H](C)OC(=O)[C@@H]2C)O[C@@H](C)[C@@H]1O [oleandomycin phosphate, reference compound]	–
